Test results from the supplement of paper PMC13207355.

Tests used:
Settings in all cases: exposure time: 72 h
[1] = tested on: E31 (patient-derived glioblastoma stem cells of proneural subtype); test: surviving fraction (nuclei count normalised to DMSO); higher = more cells surviving (less toxic)
[2] = tested on: E28 (patient-derived glioblastoma stem cells of classical subtype); test: as above
[3] = tested on: E21 (patient-derived glioblastoma stem cells of mesenchymal subtype); test: as above
[4] = tested on: E13 (patient-derived glioblastoma stem cells of classical subtype); test: as above
[5] = tested on: FT3469 (normal neural stem cell line); test: as above
[6] = tested on: E34 (patient-derived glioblastoma stem cells of proneural subtype); test: as above
[7] = tested on: E57 (patient-derived glioblastoma stem cells of mesenchymal subtype); test: as above
[8] = tested on: E31; test: phenotypic distance (Euclidean, principal components) from DMSO controls (arbitrary units); higher = stronger morphological change
[9] = tested on: E28; test: as above
[10] = tested on: E21; test: as above
[11] = tested on: E13; test: as above
[12] = tested on: FT3469; test: as above
[13] = tested on: E34; test: as above
[14] = tested on: E57; test: as above
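Wherever phenotypic distance (Euclidean, principal components) from DMSO controls is given: cell Painting imaging in 384-well plates, CellProfiler features reduced to at least 20 principal components, Euclidean distance versus same-plate DMSO vehicle wells (0.1% v/v), median over six images per well.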
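Wherever surviving fraction (nuclei count normalised to DMSO) is given: nuclei counted by high-content imaging of Hoechst-stained cells in laminin-coated 384-well plates, relative to 0.1% DMSO vehicle wells, with staurosporine as cell-death control.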

Cc1cc(Nc2cc(N3CCN(C)CC3)nc(Sc3ccc(NC(=O)C4CC4)cc3)n2)n[nH]1 [Tozasertib]
Settings | phenotypic distance | surviving fraction
[1], 4.1 nM | – | 0.944
[1], 12.3 nM | – | 0.959
[1], 37 nM | – | 0.697
[1], 111.1 nM | – | 0.423
[1], 333.3 nM | – | 0.404
[1], 1000 nM | – | 0.311
[1], 3000 nM | – | 0.33
[2], 4.1 nM | – | 0.971
[2], 12.3 nM | – | 0.855
[2], 37 nM | – | 0.81
[2], 111.1 nM | – | 0.555
[2], 333.3 nM | – | 0.535
[2], 1000 nM | – | 0.453
[2], 3000 nM | – | 0.482
[3], 4.1 nM | – | 0.847
[3], 12.3 nM | – | 0.898
[3], 37 nM | – | 0.798
[3], 111.1 nM | – | 0.743
[3], 333.3 nM | – | 0.288
[3], 1000 nM | – | 0.215
[3], 3000 nM | – | 0.224
[4], 4.1 nM | – | 0.866
[4], 12.3 nM | – | 0.951
[4], 37 nM | – | 0.797
[4], 111.1 nM | – | 0.519
[4], 333.3 nM | – | 0.467
[4], 1000 nM | – | 0.391
[4], 3000 nM | – | 0.413
[5], 4.1 nM | – | 0.899
[5], 12.3 nM | – | 0.836
[5], 37 nM | – | 0.773
[5], 111.1 nM | – | 0.688
[5], 333.3 nM | – | 0.737
[5], 1000 nM | – | 0.697
[5], 3000 nM | – | 0.579
[6], 4.1 nM | – | 0.814
[6], 12.3 nM | – | 0.878
[6], 37 nM | – | 0.929
[6], 111.1 nM | – | 0.744
[6], 333.3 nM | – | 0.711
[6], 1000 nM | – | 0.728
[6], 3000 nM | – | 0.722
[7], 4.1 nM | – | 0.966
[7], 12.3 nM | – | 0.942
[7], 37 nM | – | 0.963
[7], 111.1 nM | – | 0.484
[7], 333.3 nM | – | 0.241
[7], 1000 nM | – | 0.19
[7], 3000 nM | – | 0.197
[8], 4.1 nM | 0.87 | –
[8], 12.3 nM | 0.54 | –
[8], 37 nM | 1.16 | –
[8], 111.1 nM | 3.12 | –
[8], 333.3 nM | 2.58 | –
[8], 1000 nM | 3.12 | –
[8], 3000 nM | 2.47 | –
[9], 4.1 nM | 0.827 | –
[9], 12.3 nM | 1.02 | –
[9], 37 nM | 1.05 | –
[9], 111.1 nM | 2.58 | –
[9], 333.3 nM | 2.63 | –
[9], 1000 nM | 2.85 | –
[9], 3000 nM | 2.36 | –
[10], 4.1 nM | 1.38 | –
[10], 12.3 nM | 0.727 | –
[10], 37 nM | 1.05 | –
[10], 111.1 nM | 2.02 | –
[10], 333.3 nM | 5.67 | –
[10], 1000 nM | 6.71 | –
[10], 3000 nM | 6.04 | –
[11], 4.1 nM | 1.12 | –
[11], 12.3 nM | 0.667 | –
[11], 37 nM | 1.66 | –
[11], 111.1 nM | 4.34 | –
[11], 333.3 nM | 4.49 | –
[11], 1000 nM | 4.52 | –
[11], 3000 nM | 4.41 | –
[12], 4.1 nM | 0.795 | –
[12], 12.3 nM | 0.771 | –
[12], 37 nM | 0.921 | –
[12], 111.1 nM | 2.37 | –
[12], 333.3 nM | 2.57 | –
[12], 1000 nM | 2.47 | –
[12], 3000 nM | 2.16 | –
[13], 4.1 nM | 1.42 | –
[13], 12.3 nM | 0.649 | –
[13], 37 nM | 0.729 | –
[13], 111.1 nM | 2.85 | –
[13], 333.3 nM | 2.79 | –
[13], 1000 nM | 2.34 | –
[13], 3000 nM | 2.29 | –
[14], 4.1 nM | 0.542 | –
[14], 12.3 nM | 0.685 | –
[14], 37 nM | 0.782 | –
[14], 111.1 nM | 4.65 | –
[14], 333.3 nM | 7.94 | –
[14], 1000 nM | 8.6 | –
[14], 3000 nM | 8.14 | –

CC(C)C[C@@H](C(=O)N[C@H](C(=O)OC1CCCC1)c1ccccc1)[C@H](O)C(=O)NO [Tosedostat]
Settings | phenotypic distance | surviving fraction
[1], 4.1 nM | – | 0.788
[1], 12.3 nM | – | 0.935
[1], 37 nM | – | 0.7
[1], 111.1 nM | – | 0.861
[1], 333.3 nM | – | 0.836
[1], 1000 nM | – | 0.796
[1], 3000 nM | – | 0.683
[2], 4.1 nM | – | 0.904
[2], 12.3 nM | – | 0.755
[2], 37 nM | – | 0.781
[2], 111.1 nM | – | 0.846
[2], 333.3 nM | – | 0.657
[2], 1000 nM | – | 0.692
[2], 3000 nM | – | 0.583
[3], 4.1 nM | – | 0.858
[3], 12.3 nM | – | 0.909
[3], 37 nM | – | 0.793
[3], 111.1 nM | – | 0.78
[3], 333.3 nM | – | 0.772
[3], 1000 nM | – | 0.715
[3], 3000 nM | – | 0.507
[4], 4.1 nM | – | 0.889
[4], 12.3 nM | – | 0.853
[4], 37 nM | – | 0.863
[4], 111.1 nM | – | 1.01
[4], 333.3 nM | – | 0.894
[4], 1000 nM | – | 0.894
[4], 3000 nM | – | 0.934
[5], 4.1 nM | – | 0.843
[5], 12.3 nM | – | 0.843
[5], 37 nM | – | 0.774
[5], 111.1 nM | – | 0.831
[5], 333.3 nM | – | 0.809
[5], 1000 nM | – | 0.759
[5], 3000 nM | – | 0.746
[6], 4.1 nM | – | 0.968
[6], 12.3 nM | – | 0.827
[6], 37 nM | – | 0.787
[6], 111.1 nM | – | 0.842
[6], 333.3 nM | – | 0.662
[6], 1000 nM | – | 0.8
[6], 3000 nM | – | 0.833
[7], 4.1 nM | – | 0.806
[7], 12.3 nM | – | 0.83
[7], 37 nM | – | 0.744
[7], 111.1 nM | – | 0.679
[7], 333.3 nM | – | 0.635
[7], 1000 nM | – | 0.708
[7], 3000 nM | – | 0.622
[8], 4.1 nM | 1.18 | –
[8], 12.3 nM | 0.639 | –
[8], 37 nM | 1.52 | –
[8], 111.1 nM | 0.949 | –
[8], 333.3 nM | 1.01 | –
[8], 1000 nM | 1.28 | –
[8], 3000 nM | 1.86 | –
[9], 4.1 nM | 0.786 | –
[9], 12.3 nM | 1.24 | –
[9], 37 nM | 1.27 | –
[9], 111.1 nM | 1.73 | –
[9], 333.3 nM | 1.68 | –
[9], 1000 nM | 2.2 | –
[9], 3000 nM | 2.09 | –
[10], 4.1 nM | 0.795 | –
[10], 12.3 nM | 0.918 | –
[10], 37 nM | 0.947 | –
[10], 111.1 nM | 1.11 | –
[10], 333.3 nM | 1.62 | –
[10], 1000 nM | 1.49 | –
[10], 3000 nM | 2.1 | –
[11], 4.1 nM | 0.738 | –
[11], 12.3 nM | 0.631 | –
[11], 37 nM | 1.06 | –
[11], 111.1 nM | 1.01 | –
[11], 333.3 nM | 1.39 | –
[11], 1000 nM | 1.41 | –
[11], 3000 nM | 1.3 | –
[12], 4.1 nM | 1.7 | –
[12], 12.3 nM | 1.82 | –
[12], 37 nM | 1.97 | –
[12], 111.1 nM | 1.7 | –
[12], 333.3 nM | 1.92 | –
[12], 1000 nM | 2.23 | –
[12], 3000 nM | 2.64 | –
[13], 4.1 nM | 0.805 | –
[13], 12.3 nM | 1.29 | –
[13], 37 nM | 0.677 | –
[13], 111.1 nM | 1.91 | –
[13], 333.3 nM | 1.92 | –
[13], 1000 nM | 1.4 | –
[13], 3000 nM | 1.6 | –
[14], 4.1 nM | 1.53 | –
[14], 12.3 nM | 1.55 | –
[14], 37 nM | 1.95 | –
[14], 111.1 nM | 2.24 | –
[14], 333.3 nM | 2.7 | –
[14], 1000 nM | 2.08 | –
[14], 3000 nM | 2.7 | –
